Measurements: article PMC8494734 (Scientific Reports, 2021)

Key:
O=NO = experiment: purified protein; conditions: pH 7.0; 37.0 °C
[1] = target: T1, recombinant NirK protein (MRA2164) (Mycobacterium tuberculosis, UniProt A5U4H6)
T1 construct: gene yfiH

[2] = target: T1, recombinant NirK protein (MRA2164); experiment: biochemical; conditions: read-out: % inhibition at 5 mM

T1 sequence (A5U4H6 entry or part of it): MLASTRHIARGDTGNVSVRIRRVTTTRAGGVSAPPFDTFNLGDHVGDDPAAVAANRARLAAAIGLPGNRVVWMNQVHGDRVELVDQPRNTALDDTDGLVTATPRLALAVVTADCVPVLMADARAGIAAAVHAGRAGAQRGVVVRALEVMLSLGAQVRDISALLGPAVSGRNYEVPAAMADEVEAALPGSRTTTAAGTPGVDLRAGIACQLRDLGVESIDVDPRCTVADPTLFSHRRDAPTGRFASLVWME

Molecule | % inhibition at 5 mM [1] [%] | also measured
recombinant NirK protein (MRA2164) (Mycobacterium tuberculosis H37Ra) |  | Km (O=NO): 17.16 mM
[N-]=[N+]=[N-] [azide] | 95.16 | 
O=[N+]([O-])O [nitrate] | 47.40 | 
NC(=O)C1=CN([C@@H]2O[C@H](COP(=O)(O)OP(=O)(O)OC[C@H]3O[C@@H](n4cnc5c(N)ncnc54)[C@H](O)[C@@H]3O)[C@@H](O)[C@H]2O)C=CC1 [NADH] |  | inhibition at 5000 µM [2]: 92.3%
